Measurements: BindingDB's records for doi:10.1038/347146a0 (U. 109, 1990)

Tests used:
D(2) dopamine receptor = D(2) dopamine receptor (Rattus norvegicus, UniProt P61169)
D(3) dopamine receptor = D(3) dopamine receptor (Rattus norvegicus, UniProt P19020)
Chain of D(3) dopamine receptor (P19020 whole entry): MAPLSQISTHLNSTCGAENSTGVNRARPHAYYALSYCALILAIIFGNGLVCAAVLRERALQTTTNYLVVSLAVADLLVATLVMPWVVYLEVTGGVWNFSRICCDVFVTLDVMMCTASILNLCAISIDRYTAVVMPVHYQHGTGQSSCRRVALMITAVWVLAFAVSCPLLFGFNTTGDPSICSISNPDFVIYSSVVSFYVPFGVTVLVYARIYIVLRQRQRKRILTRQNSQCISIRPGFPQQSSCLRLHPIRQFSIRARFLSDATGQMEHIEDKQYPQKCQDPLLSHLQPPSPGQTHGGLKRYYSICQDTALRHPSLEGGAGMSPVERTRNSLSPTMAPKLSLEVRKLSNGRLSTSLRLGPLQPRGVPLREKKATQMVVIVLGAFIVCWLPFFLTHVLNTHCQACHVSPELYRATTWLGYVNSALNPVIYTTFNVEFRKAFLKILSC

Chain of D(2) dopamine receptor (P61169 whole entry): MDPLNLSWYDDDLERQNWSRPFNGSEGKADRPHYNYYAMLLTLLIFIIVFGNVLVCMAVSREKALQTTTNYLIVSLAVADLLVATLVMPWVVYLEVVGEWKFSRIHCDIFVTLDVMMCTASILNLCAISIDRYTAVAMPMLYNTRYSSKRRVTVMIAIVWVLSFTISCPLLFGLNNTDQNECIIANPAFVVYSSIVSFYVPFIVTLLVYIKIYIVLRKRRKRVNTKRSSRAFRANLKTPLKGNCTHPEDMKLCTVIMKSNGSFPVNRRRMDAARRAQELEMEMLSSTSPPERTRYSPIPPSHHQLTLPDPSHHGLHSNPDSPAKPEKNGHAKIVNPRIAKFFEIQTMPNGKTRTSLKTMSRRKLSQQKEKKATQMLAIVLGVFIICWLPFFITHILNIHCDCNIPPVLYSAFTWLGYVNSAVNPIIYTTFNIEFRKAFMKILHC

Compound	Ki (D(2) dopamine receptor)	Ki (D(3) dopamine receptor)
Nc1nc2c(ncn2[C@@H]2O[C@H](COP(=O)(O)OP(=O)(O)NP(=O)(O)O)[C@@H](O)[C@H]2O)c(=O)[nH]1 [Guanylyl imidodiphosphate]	1700 nM	27 nM
CCS(=O)(=O)c1cc(C(=O)NCC2CCCN2CC2CC2)c(OC)cc1I (stereo unspecified) [NSC_122245]	0.61 nM	1.2 nM
CCCN(CCC)C1C=Cc2c(OC)cccc2C1C (stereo unspecified) [CAS_5311190]	40 nM	9.2 nM
